Source: ChEMBL document CHEMBL4017467, “Generation of tricyclic imidazo[1,2-a]pyrazines as novel PI3K inhibitors by application of a conformational restriction strategy” (Bioorg Med Chem Lett, 2017)

Assays:
in vitro [1] = details: human, liver microsomes
in vitro [2] = details: rat, liver microsomes

CS(=O)(=O)N1CCN(Cc2cn3cc(-c4cnc(N)nc4)nc(N4CCOCC4)c3n2)CC1
remaining at 0.25 h, 1 µM (in vitro [1]): 93%
remaining at 0.25 h, 1 µM (in vitro [2]): 99%
